Measurements published in patent US4142046A, “Intermediates for the preparation of 7-acyl-3-(substituted triazolylthiomethyl)cephalosporins” (SmithKline Corporation, priority 1976, dated 1979).
≈ marks a conversion by molar mass, not a printed value. Where two headings read alike, the source gives them in different places.

Key:
[1] = test system: S. villaluz; assay: MIC in vitro; type: cell-based; conditions: read-out: MIC in vitro
Experimental: (§1) The compounds of Formula I have antibacterial activity against both Gram-positive and Gram-negative organisms. Minimum inhibitory concentrations (MIC's) ranged from 0.2 to >200 μg./ml. in in vitro testing. […] Compound numbers corresponding to structures are given in the experimental section.

[2] = test system: Proteus Morgani 179; assay: MIC in vitro; type: cell-based
Experimental: as §1

[3] = test system: Kleb. pneumo. SK 4200; assay: MIC in vitro; type: cell-based; conditions: read-out: MIC in vitro
Experimental: as §1

[4] = test system: Kleb. pneumo. SK 1200; assay: MIC in vitro; type: cell-based
Experimental: as §1

[5] = test system: E. coli HH 33779; assay: MIC in vitro; type: cell-based; conditions: Escherichia coli, HH33779
Experimental: as §1

[6] = test system: S. aureus SK 23390; assay: MIC in vitro; type: cell-based; conditions: for MIC: Staphylococcus aureus
Experimental: as §1

[7] = test system: Entero. aerog. ATCC 13048; assay: MIC in vitro; type: cell-based
Experimental: as §1

[8] = test system: S. aureus HH 127; assay: MIC in vitro; type: cell-based; conditions: Staphylococcus aureus
Experimental: as §1

[9] = test system: Salmonella ATCC 12176; assay: MIC in vitro; type: cell-based; conditions: ATCC12176
Experimental: as §1

[10] = test system: Strep. faecalis HH 34358; assay: MIC in vitro; type: cell-based; conditions: for MIC: Enterococcus faecalis, HH34358, Strep. faecalis HH 34358
Experimental: as §1

[11] = test system: Shigella HH 117; assay: MIC in vitro; type: cell-based; conditions: for MIC: Shigella, HH117, Shigella HH 117
Experimental: as §1

[12] = test system: E. coli SK 12140; assay: MIC in vitro; type: cell-based; conditions: Escherichia coli
Experimental: as §1

[13] = test system: Serra. marc. ATCC 13880; assay: MIC in vitro; type: cell-based
Experimental: as §1

[14] = test system: E. coli 12140; assay: In vivo mouse protection (ED50)
[15] = test system: Entero. cloacae HH 31254; assay: MIC in vitro; type: cell-based; conditions: for MIC: Enterobacter cloacae
Experimental: as §1

[16] = test system: Pseudo. sp. HH 63; assay: MIC in vitro; type: cell-based
Experimental: as §1

[17] = test system: Kleb. pneumo. 4200; assay: In vivo mouse protection (ED50); conditions: for ED50: Mus musculus
[18] = Kleb. pneumo. SK 1200, read-out: MIC in vitro
[19] = SK23390, S. aureus SK 23390, read-out: MIC in vitro
[20] = HH127, S. aureus HH 127, read-out: MIC in vitro
[21] = SK12140, E. coli SK 12140, read-out: MIC in vitro
[22] = Escherichia coli, 12140, po, E. coli 12140, p.o.
[23] = Escherichia coli, 12140, sc, E. coli 12140, s.c.
[24] = HH31254, read-out: MIC in vitro
[25] = HH31254, Entero. cloacae HH 31254, read-out: MIC in vitro
[26] = read-out: MIC in vitro, Kleb. pneumo. SK 1200
[27] = SK23390, read-out: MIC in vitro

| SMILES | MIC [1] | MIC [2] | MIC ([3]; Kleb. pneumo. SK 4200) | MIC [4, 18] | MIC [5] | MIC [6, 19] | MIC [7] | MIC [8, 20] | MIC [9] | MIC [10] | MIC [11] | MIC [12, 21] | MIC [13] | ED50 [14, 22] | ED50 [14, 23] | MIC [16] | ED50 in vivo ([17]; Kleb. pneumo. 4200, s.c.) | ED50 ([17]; po, Kleb. pneumo. 4200, p.o.) | ED50 ([17]; sc, Kleb. pneumo. 4200, s.c.) | MIC ([8]; HH127, read-out: MIC in vitro) | other results |
| --- | --- | --- | --- | --- | --- | --- | --- | --- | --- | --- | --- | --- | --- | --- | --- | --- | --- | --- | --- | --- | --- |
| CCOC(=O)c1nn[nH]c1SCC1=C(C(=O)O)N2C(=O)C(NC(=O)[C@H](N)c3ccccc3)[C@H]2SC1 (stereo partly drawn) [II, 7-(D-α-Aminophenylacetamido)-3-(4-carbethoxy-1,2,3-triazol-5-ylthiomethyl)-3-cephem-4-carboxylic acid] | 100 µg/mL (≈ 193 µM) | > 200 µg/mL | 25 µg/mL (≈ 48.2 µM) | 50 µg/mL (≈ 96.4 µM) | 50 µg/mL (≈ 96.4 µM) | 6 µg/mL (≈ 11.6 µM) | 50 µg/mL (≈ 96.4 µM) | 6 µg/mL (≈ 11.6 µM) | 13 µg/mL (≈ 25.1 µM) | 100 µg/mL (≈ 193 µM) | 13 µg/mL (≈ 25.1 µM) | 25 µg/mL (≈ 48.2 µM) | > 200 µg/mL |  |  |  |  |  |  |  |  |
| CCOC(=O)c1nn[nH]c1SCC1=C(C(=O)O)N2C(=O)C(NC(=O)[C@H](N)c3ccc(O)cc3)[C@H]2SC1 (stereo partly drawn) [I, 7-(D-α-Amino-4-hydroxyphenylacetamido)-3-(4-carbethoxy-1,2,3-triazol-5-ylthiomethyl)-3-cephem-4-carboxylic acid] | 200 µg/mL (≈ 374 µM) | > 200 µg/mL |  |  | 25 µg/mL (≈ 46.8 µM) | 25 µg/mL (≈ 46.8 µM) |  |  | 12.5 µg/mL (≈ 23.4 µM) | 200 µg/mL (≈ 374 µM) | 12.5 µg/mL (≈ 23.4 µM) |  | > 200 µg/mL | > 200 mg/kg | 100 mg/kg | > 200 µg/mL |  |  |  |  | MIC [15, 24]: 12.5 µg/mL (≈ 23.4 µM); MIC in vitro ([6]; S. aureus SK 23390): 13 µg/mL (≈ 24.3 µM); MIC in vitro ([10]; Strep. faecalis HH 34358): 100 µg/mL (≈ 187 µM) |
| CCOC(=O)Cc1nc(SCC2=C(C(=O)O)N3C(=O)C(NC(=O)[C@H](N)c4ccccc4)[C@H]3SC2)n[nH]1 (stereo partly drawn) [III, 7-(D-α-Aminophenylacetamido)-3-(5-carbethoxymethyl-1,2,4-triazol-3-ylthiomethyl)-3-cephem-4-carboxylic acid] |  | > 200 µg/mL | 25 µg/mL (≈ 46.9 µM) | 25 µg/mL (≈ 46.9 µM) | 50 µg/mL (≈ 93.9 µM) | 6 µg/mL (≈ 11.3 µM) | 100 µg/mL (≈ 188 µM) | 6 µg/mL (≈ 11.3 µM) | 25 µg/mL (≈ 46.9 µM) | 100 µg/mL (≈ 188 µM) | 13 µg/mL (≈ 24.4 µM) | 50 µg/mL (≈ 93.9 µM) | > 200 µg/mL | 78 mg/kg |  |  | 3 mg/kg | 50 mg/kg | < 3 mg/kg |  |  |
| N[C@@H](C(=O)NC1C(=O)N2C(C(=O)O)=C(CSc3n[nH]c(CC(=O)O)n3)CS[C@H]12)c1ccc(O)cc1 (stereo partly drawn) [VII, 7-(D-α-Amino-4-hydroxyphenylacetamido)-3-(5-carboxymethyl-1,2,4-triazol-3-ylthiomethyl)-3-cephem-4-carboxylic acid] | > 200 µg/mL | > 200 µg/mL | 1.6 µg/mL (≈ 3.07 µM) |  | 12.5 µg/mL (≈ 24 µM) |  | 25 µg/mL (≈ 48 µM) |  | 1.6 µg/mL (≈ 3.07 µM) | 100 µg/mL (≈ 192 µM) | 6.3 µg/mL (≈ 12.1 µM) | 3.1 µg/mL (≈ 5.96 µM) | > 200 µg/mL | > 50 mg/kg | 3 mg/kg | > 200 µg/mL |  | 31 mg/kg | 1.1 mg/kg | 12.5 µg/mL (≈ 24 µM) | MIC [15, 25]: 3.1 µg/mL (≈ 5.96 µM); MIC [4, 26]: 6.3 µg/mL (≈ 12.1 µM); MIC [6, 27]: 12.5 µg/mL (≈ 24 µM) |
| N[C@@H](C(=O)NC1C(=O)N2C(C(=O)O)=C(CSc3[nH]nnc3C(=O)O)CS[C@H]12)c1ccccc1 (stereo partly drawn) [V, 7-(D-α-Aminophenylacetamido)-3-(4-carboxy-1,2,3-triazol-5-ylthiomethyl)-3-cephem-4-carboxylic acid] | 200 µg/mL (≈ 408 µM) | > 200 µg/mL |  | 3.1 µg/mL (≈ 6.32 µM) | 25 µg/mL (≈ 51 µM) | 19 µg/mL (≈ 38.7 µM) | 25 µg/mL (≈ 51 µM) |  |  | 200 µg/mL (≈ 408 µM) |  | 9 µg/mL (≈ 18.3 µM) | > 200 µg/mL | > 200 mg/kg | 25 mg/kg | > 200 µg/mL |  | > 50 mg/kg | > 50 mg/kg | 12.5 µg/mL (≈ 25.5 µM) | MIC in vitro ([4]; Kleb. pneumo. SK 1200): 4.7 µg/mL (≈ 9.58 µM); MIC [6, 27]: 12.5 µg/mL (≈ 25.5 µM); MIC ([12]; SK12140, read-out: MIC in vitro, E. coli SK 12140): 12.5 µg/mL (≈ 25.5 µM) |
| O=C(O)C1=C(CSc2[nH]nnc2C(=O)O)CS[C@@H]2C(NC(=O)[C@H](O)c3ccccc3)C(=O)N12 (stereo partly drawn) [VI, 7-D-Mandelamido-3-(4-carboxy-1,2,3-triazol-5-ylthiomethyl)-3-cephem-4-carboxylic acid] | 200 µg/mL (≈ 407 µM) | > 200 µg/mL |  | 3.1 µg/mL (≈ 6.31 µM) | 25 µg/mL (≈ 50.9 µM) |  | 50 µg/mL (≈ 102 µM) |  | 12.5 µg/mL (≈ 25.4 µM) | > 200 µg/mL | 6.3 µg/mL (≈ 12.8 µM) | 6.3 µg/mL (≈ 12.8 µM) | > 200 µg/mL | > 200 mg/kg | 25 mg/kg | > 200 µg/mL |  | > 200 mg/kg | 86 mg/kg | 6.3 µg/mL (≈ 12.8 µM) | MIC [15, 24]: 12.5 µg/mL (≈ 25.4 µM); MIC [3]: 12.5 µg/mL (≈ 25.4 µM); MIC [6, 27]: 3.1 µg/mL (≈ 6.31 µM) |
| NC(=O)c1nn[nH]c1SCC1=C(C(=O)O)N2C(=O)C(NC(=O)[C@H](N)c3ccc(O)cc3)[C@H]2SC1 (stereo partly drawn) [IV, 7-(D-α-Amino-4-hydroxyphenylacetamido)-3-(4-carbamoyl-1,2,3-triazol-5-ylthiomethyl)-3-cephem-4-carboxylic acid] |  | > 200 µg/mL | 6 µg/mL (≈ 11.9 µM) | 1.6 µg/mL (≈ 3.16 µM) | 6 µg/mL (≈ 11.9 µM) | 3 µg/mL (≈ 5.93 µM) | 50 µg/mL (≈ 98.9 µM) | 3 µg/mL (≈ 5.93 µM) | 1.6 µg/mL (≈ 3.16 µM) | 25 µg/mL (≈ 49.5 µM) | 1.6 µg/mL (≈ 3.16 µM) | 6 µg/mL (≈ 11.9 µM) | > 200 µg/mL | 35 mg/kg | 5.2 mg/kg |  |  | 8.2 mg/kg | < 3 mg/kg |  |  |
| N[C@@H](C(=O)NC1C(=O)N2C(C(=O)O)=C(CSc3n[nH]c(CC(=O)O)n3)CS[C@H]12)c1ccccc1 (stereo partly drawn) [VIII, 7-(D-α-Aminophenylacetamido)-3-(5-carboxymethyl-1,2,4-triazol-3-ylthiomethyl)-3-cephem-4-carboxylic acid] |  | 200 µg/mL (≈ 396 µM) | 1.6 µg/mL (≈ 3.17 µM) | 1.6 µg/mL (≈ 3.17 µM) | 6.3 µg/mL (≈ 12.5 µM) | 25 µg/mL (≈ 49.5 µM) | 6.3 µg/mL (≈ 12.5 µM) |  | 0.8 µg/mL (≈ 1.59 µM) | 200 µg/mL (≈ 396 µM) | 3.1 µg/mL (≈ 6.14 µM) | 3.1 µg/mL (≈ 6.14 µM) | > 200 µg/mL | > 50 mg/kg | 1.1 mg/kg | > 200 µg/mL | < 0.78 mg/kg | 39 mg/kg | 0.8 mg/kg | 12.5 µg/mL (≈ 24.8 µM) | MIC [15, 25]: 3.1 µg/mL (≈ 6.14 µM) |
| O=C(O)Cc1nc(SCC2=C(C(=O)O)N3C(=O)C(NC(=O)[C@H](O)c4ccccc4)[C@H]3SC2)n[nH]1 (stereo partly drawn) [IX, 7-D-Mandelamido-3-(5-carboxymethyl-1,2,4-triazol-3-ylthiomethyl)-3-cephem-4-carboxylic acid] |  | 200 µg/mL (≈ 396 µM) | 1.6 µg/mL (≈ 3.16 µM) |  | 3.1 µg/mL (≈ 6.13 µM) | 1.6 µg/mL (≈ 3.16 µM) | 6.3 µg/mL (≈ 12.5 µM) |  | 1.6 µg/mL (≈ 3.16 µM) | 200 µg/mL (≈ 396 µM) | 0.8 µg/mL (≈ 1.58 µM) | 3.1 µg/mL (≈ 6.13 µM) | > 200 µg/mL | 41 mg/kg | 1 mg/kg | > 200 µg/mL | < 3 mg/kg | 71 mg/kg | 1.5 mg/kg | 3.1 µg/mL (≈ 6.13 µM) | MIC in vitro ([15]; Entero. cloacae HH 31254): 1.6 µg/mL (≈ 3.16 µM); MIC [15, 25]: 3.1 µg/mL (≈ 6.13 µM); MIC in vitro ([4]; Kleb. pneumo. SK 1200): 0.2 µg/mL (≈ 0.396 µM); MIC [4, 26]: 0.4 µg/mL (≈ 0.791 µM); MIC in vitro ([11]; Shigella HH 117): 1.6 µg/mL (≈ 3.16 µM); MIC in vitro [13]: 200 µg/mL (≈ 396 µM) |
